In US7807712B2, “Oxy substituted chalcones as antihyperglycemic and antidyslipidemic agents” (priority 2004, dated 2010):
Like-named read-outs stand apart in the source and are kept apart here.

Assays:
[1] = test system: triton WR-1339 induced hyperlipidemic rats; assay: Triton model, antidyslipidemic activity; format: in vivo, rat (Charles foster); conditions: 100 mg/kg oral; for inhibition in vivo at 100 mg/kg: Rattus norvegicus
Experimental: Male Charles foster rats weighing 200-225 g were divided into control, hyperlipidemic and hyperlipidemic plus drug treated groups containing six animals in each group. Hyperlipidemia was induced by administration of triton WR-1339 (200 mg/kg i.p.). All animals were maintained on a special pellet diet and water ad libitum. Compounds and standard drug were macerated with 0.2% aqueous gum acacia suspension. The suspension was fed orally at the dose of 100 mg/kg simultaneously with triton in drug treated group. The animals of control group received the same amount of gum acacia by similar route of administration. At the end of the experiment, after 18 h, blood was withdrawn from retro orbital plexus and plasma was used for the assay of total cholesterol, phospholipid and triglycerides.
Cholesterol was estimated using the kit provided by Roche Diagnostics. Cholesterol esters are enzymatically hydrolyzed by cholesterol esterase (CE) to cholesterol and free fatty acids. Free cholesterol, including that originally present, is then oxidized by cholesterol oxidase (CO) to cholest-4-en-3-one and hydrogen peroxide. The hydrogen peroxide combines with hydroxy benzoic acid (HBA) and 4-aminoantipyrine (4AAA) in the presence of peroxidase (POD) to form a chromophore (quinoneimine dye), which may be quantitated at 500-505 nm. The intensity of red colour formed is directly proportional to the concentration of total cholesterol in the specimen and measured spectrophotometrically (Searcy, C. L. Diagnostic Biochemistry, 1969, McGraw Hill, New York; Ellefson, R. D.; Caraway, W. T. Fundamentals of clinical chemistry, 1976, Ed Tietz N W, 506-515.)
Triglycerides were estimated using the kit provided by Roche Diagnostics. Lipoprotein lipase hydrolyses triglycerides to yield glycerol and fatty acids. Glycerol kinase converts glycerol to glycerol-3-phosphate, which is oxidized by glycerol phosphate oxidase to dihydroxy acetone phosphate and hydrogen peroxide. In the presence of peroxidase, hydrogen peroxide oxidatively couples with 4-aminoantipyrine and 4-chloro phenol to produce red quinonimine dye. The intensity of red colour formed is directly proportional to the concentration of triglycerides in the specimen and is measured by photometrically (Wahlefeld, A. W.; Bergmeyer, H. U. Ed. Methods of enzymatic analysis, 2nd English edition, New York, N.Y., Academic press inc, 1831-1840.).
Serum (0.2 mL) and perchloric acid (1.0 mL) was digested at 180° C. for 1-1.5 h till the solution became colorless. The liberated inorganic phosphate (Pi) was measured by the method of Fiske and Subbarow (Fiske, C. H.; Subbarow, V. J. Biol. Chem. 1925, 66, 375.). 1 mL of 2.5% ammonium molybdate (prepared in 5 N sulphuric acid) and 0.5 mL reducing agent (4-amino naphthol sulphonic acid, 0.2%), sodium metabisulphite (2.4% w/v in distilled water) was added to the above tubes and mixed well. The reaction mixture was […] with 2.5 mL of triple distilled water and kept at 60° C. in water bath for 20 min. For standard, an appropriate amount of potassium dihydrogen phosphate dissolved in triple distilled water containing 2-10 μg phosphorus (Pi) was run simultaneously with the experiment tubes. The optical density of the blue colour was recorded at 620 nm against reagent blank. The values of Pi were converted into phospholipid by multiplying with 25 (a constant calibrated from Pi value of lecithin).

[2] = test system: streptozotocin-induced diabetic rats; assay: Sucrose-challenged streptozotocin-induced diabetic rats (STZ-S), antihyperglycemic activity; format: in vivo, rat (Sprague Dawley); conditions: 100 mg/kg oral, sucrose load 2.5 g/kg, AUC vs control
Experimental: Male albino rats of Sprague Dawley strain of body weight […] were selected for this study. Streptozotocin (Sigma, USA) was dissolved in 100 mM citrate buffer pH 4.5 and calculated amount of the fresh solution was injected to overnight fasted rats (45 mg/kg) intraperitoneally. Blood glucose level was checked 48 h later by glucostrips and animals showing blood glucose values between 144 to 270 mg/dl (8 to 15 mM) were included in the experiment and termed diabetic. The diabetic animals were divided into groups consisting of five to six animals in each group. Animals of experimental groups were administered suspension of the desired test samples orally (made in 1.0% gum acacia) at a dose of 100-mg/kg-body weight. Animals of control group were given an equal amount of 1.0% gum acacia. A sucrose load of 2.5-g/kg body weight was given after 30 minutes of compound administration. After 30 minutes of post sucrose load blood glucose level was again checked by glucostrips at 30, 60, 90, 120, 180, 240, 300 min and at 24 h, respectively. Animals not found diabetic after 24 hours post treatment of the test sample were not considered and omitted from the calculations and termed as non-responders. […] Food but not water was withheld from the cages during the experimentation. Comparing the AUC of experimental and control groups determined the percent antihyperglycemic activity. Statistical comparison between groups was made by Student's ‘t’ test.

[3] = test system: sucrose loaded rats; assay: Sucrose loaded rat model (SLM), antihyperglycemic activity; format: in vivo, rat (Charles Foster/Wistar); conditions: 100 mg/kg oral, sucrose load 10.0 g/kg, AUC vs control, 30-120 min; for inhibition in vivo at 100 mg/kg: Rattus norvegicus, 2 h, read-out: % Fall in blood glucose levels SLM
Experimental: Male albino rats of Charles Foster/Wistar strain of average body weight 160±20 g were selected for this study. The blood glucose level of each animal was checked by glucometer using glucostrips (Boehringer Mannheim) after 16 h starvation. Animals showing blood glucose levels between 3.33 to 4.44 mM (60 to 80 mg/dl) were divided into groups of five to six animals in each. Animals of experimental group were administered suspension of the desired synthetic compound orally (made in 1.0% gum acacia) at a dose of 100-mg/kg-body weight. Animals of control group were given an equal amount of 1.0% gum acacia. A sucrose load (10.0 g/kg) was given to each animal orally exactly after 30 min post administration of the test sample/vehicle. Blood glucose profile of each rat was again determined at 30, 60, 90 and 120 min post administration of sucrose by glucometer. Food but not water was withheld from the cages during the course of experimentation. Quantitative glucose tolerance of each animal was calculated by Area Under Curve (AUC) method (Prism Software). Comparing the AUC of experimental and control groups determined the percentage antihyperglycemic activity. Statistical comparison was made by Dunnett's test.

[4] = plasma phospholipid after 18 h, read-out: % Fall in lipid levels (Triton model) PL
[5] = plasma total cholesterol after 18 h
[6] = plasma triglycerides after 18 h
[7] = plasma total cholesterol after 18 h, read-out: % Fall in lipid levels (Triton model) TC
[8] = plasma triglycerides after 18 h, read-out: % Fall in lipid levels (Triton model) TG

For `CCCCNCC(O)COc1ccccc1C(=O)/C=C/c1ccc(OC)cc1` (stereo not drawn) [Compound 31, 2′-[3-n-Butylamino-2-hydroxy-propoxy]-4-methoxy-chalcone], the inhibition in vivo at 100 mg/kg [1, 4] was 3%, the “% Fall in blood glucose levels STZ-S 5 h” value [2] was “NIL” and the “% Fall in blood glucose levels STZ-S 24 h” value [2] was “NIL”. The inhibition in vivo at 100 mg/kg [3] was 33.1% and the melting point was 106 to 107 °C.
In the case of `O=C1NC(=O)C(=Cc2ccc(OCCCCOc3cccc(C(=O)C=Cc4ccc5c(c4)OCO5)c3)cc2)S1` [Compound 45, 3,4-Methylenedioxy-3′-{4-[4-(thiazolidin-2,4-dione-5-ylidinemethyl)-phenoxy]-butoxy}-chalcone], the “% Fall in lipid levels (Triton model) PL” value ([1]; plasma phospholipid after 18 h) is reported as 21%, the “% Fall in lipid levels (Triton model) TC” value [1, 5] is reported as 23% and the “% Fall in lipid levels (Triton model) TG” value [1, 6] is reported as 14%. The “% Fall in blood glucose levels SLM” value [3] was 0.13%.
In the case of `COc1ccc(/C=C/C(=O)c2ccc(OCC(O)CNC(C)(C)C)cc2)cc1` (stereo not drawn) [Compound 22, 4′-[3-tert-Butylamino-2-hydroxy-propoxy]-4-methoxy-chalcone], the inhibition in vivo at 100 mg/kg [1, 4] is reported as 11%, the inhibition in vivo at 100 mg/kg [1, 7] is reported as 16% and the inhibition in vivo at 100 mg/kg [1, 8] is reported as 21%. The “% Fall in blood glucose levels STZ-S 5 h” value [2] was “NIL”, the “% Fall in blood glucose levels STZ-S 24 h” value [2] was “NIL” and the inhibition in vivo at 100 mg/kg [3] was 11.8%. For the same compound, the melting point was 70 to 71 °C.
In the case of `COc1ccc(C=CC(=O)c2cccc(OCCCCOc3ccc(C=C4SC(=O)NC4=O)cc3)c2)cc1` [Compound 43, 4-Methoxy-3′-{4-[4-(thiazolidin-2,4-dione-5-ylidinemethyl)-phenoxy]-butoxy}-chalcone], the “% Fall in lipid levels (Triton model) PL” value ([1]; plasma phospholipid after 18 h) is reported as 14%, the “% Fall in lipid levels (Triton model) TC” value [1, 5] is reported as 04% and the “% Fall in lipid levels (Triton model) TG” value [1, 6] is reported as 31%. The “% Fall in blood glucose levels SLM” value [3] was “NIL”.
Work on `CNCC(O)COc1ccc(C(=O)/C=C/c2ccc(OC)cc2)cc1` (stereo not drawn) [Compound 26, 4′-[2-Hydroxy-3-methylamino-propoxy]-4-methoxy-chalcone] yielded an inhibition in vivo at 100 mg/kg [1, 4] of 28%, an inhibition in vivo at 100 mg/kg [1, 7] of 37% and an inhibition in vivo at 100 mg/kg [1, 8] of 39%. It also gave a melting point of 114 to 115 °C.
Compound `CC(C)CNCC(O)COc1ccc(C(=O)/C=C/c2ccc3c(c2)OCO3)cc1` (stereo not drawn) [Compound 35, 4′-[3-iso-Butylamino-2-hydroxy-propoxy]-3,4-methylenedioxy-chalcone] has an inhibition in vivo at 100 mg/kg [1, 4] of 9%, an inhibition in vivo at 100 mg/kg [1, 7] of 13% and an inhibition in vivo at 100 mg/kg [1, 8] of 13%. The “% Fall in blood glucose levels STZ-S 24 h” value [2] was 11.6%, the inhibition in vivo at 100 mg/kg [3] was 23.8% and the melting point was 122 to 123 °C.
Work on `COc1ccc(/C=C/C(=O)c2ccc(OCC(O)CNC(C)(C)C)cc2)cc1OC` (stereo not drawn) [Compound 19, 4′-[3-tert-Butylamino-2-hydroxy-propoxy]-3,4-dimethoxy-chalcone] yielded an inhibition in vivo at 100 mg/kg [1, 4] of 22%, an inhibition in vivo at 100 mg/kg [1, 7] of 21% and an inhibition in vivo at 100 mg/kg [1, 8] of 19%. For the same compound, the “% Fall in blood glucose levels STZ-S 5 h” value [2] was “NIL”, the “% Fall in blood glucose levels STZ-S 24 h” value [2] was “NIL” and the inhibition in vivo at 100 mg/kg [3] was 11.2%. For the same compound, the melting point was 62 to 64 °C.
In the case of `COc1ccc(/C=C/C(=O)c2ccc(OCC(O)CNCC(C)C)cc2)cc1` (stereo not drawn) [Compound 21, 4′-[3-iso-Butylamino-2-hydroxy-propoxy]-4-methoxy-chalcone], the inhibition in vivo at 100 mg/kg [1, 4] is reported as 14%, the inhibition in vivo at 100 mg/kg [1, 7] is reported as 5% and the inhibition in vivo at 100 mg/kg [1, 8] is reported as 12%. The inhibition in vivo at 100 mg/kg [3] was 5.67% and the melting point was 76 to 77 °C.
`COc1ccc(/C=C/C(=O)c2cccc(OCC(O)CN3CCN(c4ccccc4)CC3)c2)cc1` (stereo not drawn) [Compound 28, 3′-[2-Hydroxy-3-(4-phenylpiperazin-1-yl)-propoxy]-4-methoxy-chalcone] showed an inhibition in vivo at 100 mg/kg [1, 4] of 26%, an inhibition in vivo at 100 mg/kg [1, 7] of 40% and an inhibition in vivo at 100 mg/kg [1, 8] of 17%. The inhibition in vivo at 100 mg/kg [3] was 4.41% and the melting point was 153 to 154 °C.
In the case of `O=C(/C=C/c1ccc2c(c1)OCO2)c1ccc(OCC(O)CN2CCN(c3ccccc3)CC2)cc1` (stereo not drawn) [Compound 33, 4′-[2-Hydroxy-3-(4-phenylpiperazin-1-yl)-propoxy]-3,4-methylenedioxy-chalcone], the inhibition in vivo at 100 mg/kg [1, 4] is reported as 21%, the inhibition in vivo at 100 mg/kg [1, 7] is reported as 22% and the inhibition in vivo at 100 mg/kg [1, 8] is reported as 16%. For the same compound, the inhibition in vivo at 100 mg/kg [3] was 5.03% and the melting point was 153 to 154 °C.
In the case of `COc1ccc(/C=C/C(=O)c2ccccc2OCC(O)CNC(C)C)cc1` (stereo not drawn) [Compound 32, 2′-[2-Hydroxy-3-iso-propylamino-propoxy]-4-methoxy-chalcone], the inhibition in vivo at 100 mg/kg [1, 4] is reported as 15%, the inhibition in vivo at 100 mg/kg [1, 7] is reported as 22% and the inhibition in vivo at 100 mg/kg [1, 8] is reported as 29%. For the same compound, the “% Fall in blood glucose levels STZ-S 24 h” value [2] was 2.77%, the inhibition in vivo at 100 mg/kg [3] was 47% and the melting point was 88 to 89 °C.
With `COc1ccc(/C=C/C(=O)c2ccc(OCC(O)CNCCc3ccc(OC)c(OC)c3)cc2)cc1` (stereo not drawn) [Compound 25, 4′-[3-{2-(3,4-Dimethoxyphenyl)-ethylamino}-2-hydroxy-propoxy]-4-methoxy-chalcone] the inhibition in vivo at 100 mg/kg [1, 4] was 10%, the inhibition in vivo at 100 mg/kg [1, 7] was 4% and the inhibition in vivo at 100 mg/kg [1, 8] was 33%. For the same compound, the “% Fall in blood glucose levels SLM” value [3] was “NIL” and the melting point was 120 to 121 °C.
With `COc1ccc(/C=C/C(=O)c2ccc(OCC(O)CNC(C)C)cc2)cc1` (stereo not drawn) [Compound 23, 4′-[2-Hydroxy-3-iso-propylamino-propoxy]-4-methoxy-chalcone] the inhibition in vivo at 100 mg/kg [1, 4] was 12%, the inhibition in vivo at 100 mg/kg [1, 7] was 17% and the inhibition in vivo at 100 mg/kg [1, 8] was 22%. It also gave an inhibition in vivo at 100 mg/kg [3] of 1.41% and a melting point of 105 to 106 °C.
For `COc1ccc(C=CC(=O)c2cccc(OCCCCCOc3ccc(C=C4SC(=O)NC4=O)cc3)c2)cc1` [Compound 44, 4-Methoxy-3′-{5-[4-(thiazolidin-2,4-dione-5-ylidinemethyl)-phenoxy]-pentyloxy}-chalcone], the “% Fall in lipid levels (Triton model) PL” value ([1]; plasma phospholipid after 18 h) was 13%, the “% Fall in lipid levels (Triton model) TC” value [1, 5] was 06% and the “% Fall in lipid levels (Triton model) TG” value [1, 6] was 19%. The “% Fall in blood glucose levels SLM” value [3] was “NIL”.
